Results as given in ChEMBL document CHEMBL6096657, “Exploring structure-directed immunogenic cytotoxicity of arginine-rich peptides for cytolysis-induced immunotherapy of cancer” (Bioorg Med Chem, 2024).
Active and inactive are the calls of the source. The calls are words filed in the database; no cut-off is given here. Where a SMILES comes first, the peptide text is derived from it. Bridges are numbered along the chain shown (N, C = ends).

Key:
4T1 [1] = test: Cytotoxicity against mouse 4T1 cells assessed as cell viability by MTT assay; assay type: functional, cell-based
4T1 [2] = test: Cytotoxicity against mouse 4T1 cells at 8 uM measured after 15 mins by MTT assay; assay type: functional, cell-based
4T1 [3] = test: Cytotoxicity against mouse 4T1 cells assessed as cell death rate at 8 uM measured after 1 hr by MTT assay; assay type: functional
4T1 [4] = test: Cytotoxicity against mouse 4T1 cells assessed as cell death rate at 8 uM by PI staining based confocal microscopic analysis; assay type: functional
4T1 [5] = test: Induction of morphological changes in mouse 4T1 cells at 8 uM by PI staining based confocal microscopic analysis; assay type: functional, cell-based
4T1 [6] = test: Induction of ROS generation in mouse 4T1 cells 24 hrs by DCFDA-fluorescence based flow cytometry; assay type: functional, cell-based
4T1 [7] = test: Induction of apoptosis in mouse 4T1 cells assessed as increase in late necrotic cell death incubated for 24 hrs by Annexin V/FITC staining based flow cytometry analysis; assay type: functional
4T1 [8] = test: Induction of apoptosis in mouse 4T1 cells assessed as increase in caspase-3 activity measured at 30 mins; assay type: functional, cell-based
4T1 [9] = test: Induction of apoptosis in mouse 4T1 cells assessed as increase in caspase-3 activity measured at 60 mins; assay type: functional, cell-based
4T1 [10] = test: Induction of necroptosis in mouse 4T1 cells assessed as increase in cell viability in presence of necrostatin-1 by MTT assay; assay type: functional, cell-based; settings: dose 0.625-30 µM
4T1 [11] = test: Induction of immunogenic cell death in mouse 4T1 cells assessed as ATP release at 4 to 32 uM measured after 2 hrs; assay type: functional, cell-based; settings: dose 4-32 µM
4T1 [12] = test: Induction of immunogenic cell death in mouse 4T1 cells assessed as ATP release at 4 to 32 uM measured after 4 hrs; assay type: functional, cell-based; settings: dose 4-32 µM
4T1 [13] = test: Induction of immunogenic cell death in mouse 4T1 cells assessed as HMGB1 release at 4 to 32 uM measured after 2 hrs; assay type: functional, cell-based; settings: dose 4-32 µM
4T1 [14] = test: Induction of immunogenic cell death in mouse 4T1 cells assessed as increase in CRT translocation to cell surface at 4 to 32 uM; assay type: functional, cell-based; settings: dose 4-32 µM
4T1 [15] = test: Induction of necrosis in mouse 4T1 cells cocultured with mouse BMDC cells at 12 uM incubated for 4 hrs by flow cytometry analysis; assay type: functional, cell-based
THP-1 = test: Induction of M1 macrophage polarization in human THP-1 cells assessed as increase in IL-1beta level measured after 48 hrs; assay type: functional, cell-based
4T1 [16] = test: Antitumor activity against mouse 4T1 cells implanted in mouse assessed as reduction in tumor size; assay type: functional, cell-based
4T1 [17] = test: Cytotoxicity against mouse 4T1 cells; assay type: functional, cell-based
[18] = Cytotoxicity against mouse BMDC cells; assay type: toxicity, cell-based; settings: BMDC cells (bone marrow-derived dendritic cells)
[19] = Cytotoxicity against mouse BMDM cells; assay type: toxicity, cell-based; settings: BMDM cells (bone marrow-derived macrophages)
4T1 [20] = test: Cytotoxicity against mouse 4T1 cells assessed as cell death rate at 4 uM measured after 15 mins by MTT assay; assay type: functional, cell-based
4T1 [21] = test: Cytotoxicity against mouse 4T1 cells assessed as cell death rate at 4 uM measured after 2 hrs by MTT assay; assay type: functional
4T1 [22] = test: Cytotoxicity against mouse 4T1 cells assessed as cell death rate at 10 uM by PI staining based confocal microscopic analysis; assay type: functional
4T1 [23] = test: Induction of morphological changes in mouse 4T1 cells at 10 uM by PI staining based confocal microscopic analysis; assay type: functional, cell-based
4T1 [24] = test: Induction of apoptosis in mouse 4T1 cells assessed as early apoptotic cell incubated for 24 hrs by Annexin V/FITC staining based flow cytometry analysis; assay type: functional
4T1 [25] = test: Induction of apoptosis in mouse 4T1 cells assessed as cell death in presence of Ac-DEVD-CHO; assay type: functional, cell-based
4T1 [26] = test: Induction of immunogenic cell death in mouse 4T1 cells assessed as HMGB1 release at 4 to 32 uM measured after 4 hrs; assay type: functional, cell-based; settings: dose 4-32 µM
4T1 [27] = test: Induction of necrosis in mouse 4T1 cells cocultured with mouse BMDC cells at 15 uM incubated for 4 hrs by flow cytometry analysis; assay type: functional, cell-based
4T1 [28] = test: Cytotoxicity against mouse 4T1 cells assessed as cell death rate at 4 uM measured at 15 mins by MTT assay relative to control; assay type: functional; settings: 0.25 h
4T1 [29] = test: Cytotoxicity against mouse 4T1 cells assessed as cell death rate at 4 uM measured at 30 mins by MTT assay relative to control; assay type: functional; settings: 0.5 h
4T1 [30] = test: Induction of morphological changes in mouse 4T1 cells at 4 uM by PI staining based confocal microscopic analysis; assay type: functional, cell-based
4T1 [31] = test: Induction of immunogenic cell death in mouse 4T1 cells assessed as ATP release at 2 to 16 uM measured after 2 hrs; assay type: functional, cell-based; settings: dose 2-16 µM
4T1 [32] = test: Induction of immunogenic cell death in mouse 4T1 cells assessed as ATP release at 2 to 16 uM measured after 4 hrs; assay type: functional, cell-based; settings: dose 2-16 µM
4T1 [33] = test: Induction of immunogenic cell death in mouse 4T1 cells assessed as HMGB1 release at 2 to 16 uM measured after 2 hrs; assay type: functional, cell-based; settings: dose 2-16 µM
4T1 [34] = test: Induction of immunogenic cell death in mouse 4T1 cells assessed as increase in CRT translocation to cell surface at 2 to 16 uM; assay type: functional, cell-based; settings: dose 2-16 µM
4T1 [35] = test: Induction of necrosis in mouse 4T1 cells cocultured with mouse BMDC cells at 6 uM incubated for 4 hrs by flow cytometry analysis; assay type: functional, cell-based

CC(=O)N[C@H]1CSSC[C@@H](C(=O)N[C@@H](CC(C)C)C(=O)N[C@@H](Cc2ccccc2)C(=O)N[C@@H](Cc2c[nH]c3ccccc23)C(=O)N[C@@H](Cc2ccccc2)C(N)=O)NC(=O)[C@H](CCCNC(=N)N)NC(=O)[C@H](CCCNC(=N)N)NC(=O)[C@H](CCCNC(=N)N)NC(=O)[C@H](CCCNC(=N)N)NC(=O)[C@H](CCCNC(=N)N)NC(=O)[C@H](CCCNC(=N)N)NC(=O)[C@H](CCCNC(=N)N)NC(=O)[C@H](CCCNC(=N)N)NC1=O (Ac-CRRRRRRRRCLFWF-NH2; disulfide 1-10)
IC50 (4T1 [1]): 8.5 µM

CC(=O)N[C@@H](Cc1ccccc1)C(=O)N[C@@H](Cc1c[nH]c2ccccc12)C(=O)N[C@@H](Cc1ccccc1)C(=O)N[C@@H](CC(C)C)C(=O)N[C@H]1CSSC[C@@H](C(N)=O)NC(=O)[C@H](CCCNC(=N)N)NC(=O)[C@H](CCCNC(=N)N)NC(=O)[C@H](CCCNC(=N)N)NC(=O)[C@H](CCCNC(=N)N)NC(=O)[C@H](CCCNC(=N)N)NC(=O)[C@H](CCCNC(=N)N)NC(=O)[C@H](CCCNC(=N)N)NC(=O)[C@H](CCCNC(=N)N)NC1=O (Ac-FWFLCRRRRRRRRC-NH2; disulfide 5-14)
IC50 (4T1 [1]): 7.5 µM | Activity (4T1 [2]): Active | Activity (4T1 [3]): 50% | Activity (4T1 [4]): Active | Activity (4T1 [5]): Active | Activity (4T1 [6]): Active | Activity (4T1 [7]): Active | Activity (4T1 [8]): inactive | Activity (4T1 [9]): inactive | Activity (4T1 [10]): Dose-dependent-effect | Activity (4T1 [11]): Active | Activity (4T1 [12]): Active | Activity (4T1 [13]): Active | Activity (4T1 [14]): Active | Activity (4T1 [15]): Active | Activity (THP-1): Active | Activity (4T1 [16]): Active | IC50 (4T1 [17]): 7.5 µM | IC50 [18]: 7.8 µM | IC50 [19]: 10.3 µM

CC(=O)N[C@@H](CC(C)C)C(=O)N[C@@H](CC(C)C)C(=O)N[C@@H](CC(C)C)C(=O)N[C@@H](CC(C)C)C(=O)N[C@H]1CSSC[C@@H](C(N)=O)NC(=O)[C@H](CCCNC(=N)N)NC(=O)[C@H](CCCNC(=N)N)NC(=O)[C@H](CCCNC(=N)N)NC(=O)[C@H](CCCNC(=N)N)NC(=O)[C@H](CCCNC(=N)N)NC(=O)[C@H](CCCNC(=N)N)NC(=O)[C@H](CCCNC(=N)N)NC(=O)[C@H](CCCNC(=N)N)NC1=O (Ac-LLLLCRRRRRRRRC-NH2; disulfide 5-14)
IC50 (4T1 [1]): 9.3 µM

CC(=O)N[C@@H](CCCNC(=N)N)C(=O)N[C@@H](CC(C)C)C(=O)N[C@@H](CC(C)C)C(=O)N[C@@H](CCCNC(=N)N)C(=O)N[C@@H](CC(C)C)C(=O)N[C@@H](CC(C)C)C(=O)N[C@@H](CCCNC(=N)N)C(=O)N[C@@H](CC(C)C)C(=O)N[C@@H](CCCNC(=N)N)C(=O)N[C@@H](CCCNC(=N)N)C(=O)N[C@@H](CC(C)C)C(=O)N[C@@H](CC(C)C)C(=O)N[C@@H](CCCNC(=N)N)C(=O)N[C@@H](CC(C)C)C(N)=O (Ac-RLLRLLRLRRLLRL-NH2)
IC50 (4T1 [1]): 9.3 µM | Activity (4T1 [20]): Active | Activity (4T1 [21]): 50% | Activity (4T1 [22]): Active | Activity (4T1 [23]): inactive | Activity (4T1 [6]): Active | Activity (4T1 [24]): Active | Activity (4T1 [8]): Active | Activity (4T1 [9]): Active | Activity (4T1 [25]): Active | Activity (4T1 [11]): Active | Activity (4T1 [12]): Active | Activity (4T1 [13]): Active | Activity (4T1 [26]): Active | Activity (4T1 [27]): Active

CC(=O)N[C@@H](CCCNC(=N)N)C(=O)N[C@@H](CC(C)C)C(=O)N[C@@H](CC(C)C)C(=O)N[C@@H](CCCNC(=N)N)C(=O)N[C@@H](CC(C)C)C(=O)N[C@@H](CC(C)C)C(=O)N[C@@H](CCCNC(=N)N)C(=O)N[C@@H](CCCNC(=N)N)C(=O)N[C@@H](CC(C)C)C(=O)N[C@@H](CC(C)C)C(=O)N[C@@H](CCCNC(=N)N)C(=O)N[C@@H](CC(C)C)C(=O)N[C@@H](CC(C)C)C(=O)N[C@@H](CCCNC(=N)N)C(N)=O (Ac-RLLRLLRRLLRLLR-NH2)
IC50 (4T1 [1]): 3.3 µM | Activity (4T1 [28]): 30% | Activity (4T1 [29]): 50% | Activity (4T1 [30]): inactive | Activity (4T1 [6]): inactive | Activity (4T1 [8]): inactive | Activity (4T1 [9]): inactive | Activity (4T1 [31]): Active | Activity (4T1 [32]): Active | Activity (4T1 [33]): Active | Activity (4T1 [34]): Active | Activity (4T1 [35]): Active

N=C(N)NCCC[C@@H]1NC(=O)[C@H](CCCNC(=N)N)NC(=O)[C@H](CCCNC(=N)N)NC(=O)[C@H](CCCNC(=N)N)NC(=O)[C@H](CCCNC(=N)N)NC(=O)[C@H](CCCNC(=N)N)NC(=O)[C@H](CCCNC(=N)N)NC(=O)[C@H](CCCNC(=N)N)NC(=O)[C@@H](NC(=O)[C@H](Cc2ccccc2)NC(=O)[C@H](Cc2ccccc2)NC(=O)[C@H](Cc2ccccc2)NC(=O)[C@@H](N)Cc2ccccc2)CSSC[C@@H](C(=O)O)NC1=O (H-FFFFCRRRRRRRRC-OH; disulfide 5-14)
IC50 (4T1 [1]): 8.8 µM
